Tests used:
[1] = tested on: lymphocytes in the peripheral blood; test: Lymphocyte count in peripheral blood, C57BL/6J strain mice; format: in vivo; conditions: C57BL/6J mice, 24 hours from final administration
Procedure: Seven-week-old mice (Japan SLC, Inc., C57BL/6J strain) were repeatedly orally administered Compound 1 suspended in a vehicle (0.5% MC solution) at a dose of 0.003 mg/kg, 0.01 mg/kg, 0.03 mg/kg, 0.1 mg/kg, 0.3 mg/kg, or 1 mg/kg (in terms of free form) once daily for 14 days in the same manner as in Example 1. A control was administered only the vehicle (vehicle group). Experiments were performed using 5 mice in each group. At 24 hours from the final administration, blood was collected from the abdominal vena cava under isoflurane anesthesia using a heparin-treated syringe, and was mixed with ethylenediaminetetraacetic acid dipotassium salt (EDTA.2K) (1 mg). The lymphocyte count in the collected blood was measured using XT-2000iv (Sysmex Corporation).

VEGF = VEGF production in CNV model (western blot of choroid-retinal pigment epithelium); format: in vivo, mice; conditions: 0.3 mg/kg orally once daily, 5 days after laser irradiation
Procedure: A CNV model generated by the same method as in Example 1 was orally administered Compound 1 suspended in a vehicle (0.5% MC solution) at a dose of 0.3 mg/kg (in terms of free form) once daily from the day before laser irradiation to the day of sampling. Controls were an untreated group (normal group) and a group administered only the vehicle (vehicle group). Experiments were performed using 6 mice in the Compound 1 administration group, 8 mice in the normal group, and 7 mice in the vehicle group. After 5 days from the laser irradiation, the mice were euthanized by cervical dislocation, and the eyeball was extirpated. Choroid-retinal pigment epithelium was isolated from the eyeball, and the expression amount of VEGF protein was measured by a western blot method using an anti-VEGF antibody (manufactured by Merck Millipore). In addition, the results of calculation of the expression amount of VEGF relative to that of β-actin with reference to the normal group are shown in FIG. 5(b).

S1P3 receptor = S1P3 receptor (Homo sapiens, UniProt Q99500); conditions: GTP[γ35S] binding assay; report PLoS One, 2014; cited from earlier work
Chain of S1P3 receptor (Q99500 whole entry): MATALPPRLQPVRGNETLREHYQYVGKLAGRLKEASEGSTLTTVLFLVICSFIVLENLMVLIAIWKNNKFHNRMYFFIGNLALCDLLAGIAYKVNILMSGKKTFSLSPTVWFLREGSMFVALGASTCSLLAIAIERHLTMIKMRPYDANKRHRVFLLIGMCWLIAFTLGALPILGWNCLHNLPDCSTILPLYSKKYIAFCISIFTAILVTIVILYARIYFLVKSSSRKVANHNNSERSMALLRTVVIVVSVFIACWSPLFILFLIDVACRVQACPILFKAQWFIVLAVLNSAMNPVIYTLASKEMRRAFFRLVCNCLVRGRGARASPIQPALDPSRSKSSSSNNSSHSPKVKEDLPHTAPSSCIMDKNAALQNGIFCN

S1P2 receptor = S1P2 receptor (Homo sapiens, UniProt O95136); conditions: GTP[γ35S] binding assay; report PLoS One, 2014; cited from earlier work
Chain of S1P2 receptor (O95136 whole entry): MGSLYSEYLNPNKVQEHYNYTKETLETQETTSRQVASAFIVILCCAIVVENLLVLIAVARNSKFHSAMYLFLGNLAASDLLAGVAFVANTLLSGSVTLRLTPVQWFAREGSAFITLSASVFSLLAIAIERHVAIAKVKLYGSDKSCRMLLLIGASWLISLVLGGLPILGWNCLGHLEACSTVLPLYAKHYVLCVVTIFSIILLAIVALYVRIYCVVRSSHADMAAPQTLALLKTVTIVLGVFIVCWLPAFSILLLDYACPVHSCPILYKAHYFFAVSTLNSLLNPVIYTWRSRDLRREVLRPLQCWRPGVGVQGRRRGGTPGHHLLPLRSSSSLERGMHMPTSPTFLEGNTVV

S1P5 receptor = S1P5 receptor (Homo sapiens, UniProt Q9H228); conditions: GTP[γ35S] binding assay; report PLoS One, 2014, 9(10), e110819; read-out: EC50 for S1P5 receptor agonist activity; cited from earlier work
Chain of S1P5 receptor (Q9H228 whole entry): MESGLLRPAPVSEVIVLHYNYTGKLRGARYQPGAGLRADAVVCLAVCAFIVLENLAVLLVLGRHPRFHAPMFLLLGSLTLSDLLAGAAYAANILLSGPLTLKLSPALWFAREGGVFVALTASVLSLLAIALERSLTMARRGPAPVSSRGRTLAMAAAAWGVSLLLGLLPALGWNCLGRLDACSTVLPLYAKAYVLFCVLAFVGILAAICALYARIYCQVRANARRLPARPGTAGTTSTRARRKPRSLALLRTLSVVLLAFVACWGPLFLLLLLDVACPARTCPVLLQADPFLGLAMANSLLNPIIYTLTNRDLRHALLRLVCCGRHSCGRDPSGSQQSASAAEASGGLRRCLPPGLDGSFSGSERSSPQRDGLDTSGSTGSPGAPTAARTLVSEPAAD

[2] = tested on: laser-induced choroidal neovascularization (CNV) model; test: Laser-induced CNV model: fluorescein angiography (FA) grade; format: in vivo, mice; conditions: 0.03 mg/kg or 0.3 mg/kg orally once daily, each group; Day 14 after laser irradiation
Procedure: A Mydrin-P ophthalmic solution (Santen Pharmaceutical Co., Ltd., Mydrin is a trademark) was dropped into the right eye of 8-week-old mice (Japan SLC, Inc., C56BL/6J strain) to cause mydriasis. A solution obtained by diluting a 7:1 mixed anesthetic solution of ketamine and xylazine 10-fold with physiological saline was administered at 10 mL/kg into the femoral muscle. After that, a 0.1% Hyalein (trademark) ophthalmic solution (Santen Pharmaceutical Co., Ltd.) was dropped into the eye so as to prevent the eyeball from drying. […]
Sampling was performed on the 14th day after the laser irradiation. The mice were anesthetized with 10 mL/kg of a solution obtained by diluting a 7:1 mixed anesthetic solution of ketamine and xylazine 10-fold with physiological saline, and then 0.1 mL of a 10-fold dilution of fluorescein (Alcon Japan Ltd.) was administered into the tail vein of the mice, followed by fluorescence fundus photography using Micron 4 (Phoenix Research Laboratories, Inc. Pleasanton, Calif., USA).
In FIG. 1 (a), Day 0 indicates images taken on the day of the laser irradiation, and Day 14 indicates images taken on the 14th day. In addition, for the image of each group on Day 14, an FA grade was determined for each laser irradiation site in accordance with grade criteria shown in Table 1 to evaluate the leakage of a fluorescent dye from a neovascularization site. […]

C[C@H](Oc1ccc(-c2nc(-c3ccc4[nH]cnc4c3)no2)cc1C(F)(F)F)C(F)(F)F.Cl [Compound 1, 5-{5-[3-(trifluoromethyl)-4-{[(2S)-1,1,1-trifluoropropan-2-yl]oxy}phenyl]-1,2,4-oxadiazol-3-yl}-1H-benzimidazole monohydrochloride]
lymphocytes in the peripheral blood ([1]; 0.03 mg/kg orally once daily for 14 days): not found to have a significant action | lymphocytes in the peripheral blood ([1]; 0.1 mg/kg or more orally once daily for 14 days): significantly decreased lymphocytes in the peripheral blood | expression of VEGF relative to β-actin, as compared to the vehicle group (VEGF): significantly reduced the expression of VEGF | EC50 for S1P3 receptor agonist activity as compared to that for the S1P1 receptor (S1P3 receptor): ≥ 100 fold | EC50 for S1P2 receptor agonist activity as compared to that for the S1P1 receptor (S1P2 receptor): ≥ 100 fold | EC50 (S1P5 receptor): 7.5 nM | FA grade as compared to the vehicle group [2]: significantly lowered

Source: patent publication US20210113529A1, “MEDICINE FOR PREVENTING OR TREATING OPHTHALMIC DISEASE ASSOCIATED WITH ENHANCED INTRAOCULAR NEOVASCULARIZATION AND/OR INTRAOCULAR VASCULAR PERMEABILITY” (KYOTO UNIVERSITY, priority 2018, published 2021)
